Values quoted from earlier work, collected in patent US5395974A, “Lewis acid catalyzed ammonolysis of nylon” (E. I. Du Pont de Nemours and Company, priority 1994, dated 1995).

Settings: values in square brackets in the text

O=C(O)C(F)(F)F [CF3 CO2 --]
pKa of the conjugate acid of the anion: 0.2
